Source: patent US4567201A, “Diphenoxypropane derivatives and compositions of antiasthmatic and antiinflammatory agents thereof” (Takeda Chemical Industries, Ltd., priority 1981, dated 1986)

Columns and labels:
[1] = tested on: leukotriene D4 (LTD4)-induced contraction of the guinea pig ileum; experiment: Anti-SRS-A activity: inhibition of LTD4-induced contraction of guinea pig ileum; settings: 50% inhibition of LTD4-induced contraction (60-70% of maximum contraction), drug added 1 minute before LTD4
Text: The present inventors studied the antagonistic action of compound (I)-A against SRS-A using a synthetic LTD4 in the following manner.
The inhibitory effect of the drug on the contractile response (60-70% of maximum contraction) of the ileum of guinea pig (body weight 300-350 g, female and male) to leukotriene D4 (LTD4) was investigated. In Tyrode solution containing atropine (10^-7 M) and mepyramine (10^-6 M), 3×10^-10 or 10^-9 M of LTD4 was repeatedly permitted to act on the guinea pig ileum and after the amplitude of contraction had become constant, a solution of the test drug was added to a final concentration of 10^-9 to 10^-4 M. After 1 minute, the same concentration of LTD4 was further added and the anti-SRS-A activity of the drug was calculated from the change in contraction amplitude by means of the following equation. [formula]
To obtain the IC50 value, the mole concentration of the drug showing a 50% inhibition of the contractile response was determined from plots on a graph.
The drug was used as dissolved in dimethyl sulfoxide. The solvent was used in an amount less than 1% which would not exert any influence on the ileum.

[2] = tested on: bronchoconstriction due to leukotriene D4 (LTD4); experiment: Inhibition of bronchoconstriction due to intravenous LTD4 in guinea pigs (Konzett-Rossler); format: in vivo, guinea pig (Hartley strain); settings: for Percent increase of overflow: 2 minutes before LTD4 10 μg/kg i.v., Mean±S.E.; for Percent inhibition: 2 minutes before LTD4 (Table 2)
Procedure: Guinea pigs of Hartley strain, both male and female, with body weights about 400 g were assigned to groups of 6 individuals, and the bronchoconstriction due to LTD4 were measured according to the method of Konzett-Rossler, [Konzett, H. and Rossler, R.: Naunyn-Schmiedebergs Archiv Fur Experimentelle Pathologie und Pharmakologie 195, 71-74 (1940)]. Each guinea pig was fixed in supine position under urethane anesthesia (1.5 g/kg, intraperitoneal) and the trachea was incised and connected to an artificial respiration apparatus, Rodent Respirator Model 680 [Harvard Apparatus Company, U.S.A.] via a cannula. The branch tube of this tracheal cannula was connected to Bronchospasm Transducer Model 7020 [Ugobasil Biological Research Apparatus, Italy]. Under the conditions of 5 to 7 ml of air per stroke, 70 strokes per minute and a lung loading pressure of 10 cmH2 O, the volume of overflowing air was recorded on Rectigraph-8S (Sanei Sokki Ltd., Japan) via a transducer. After administration of gallamine triethiodide (1 mg/kg, i.v.), 10 μ g/kg of histamine.2HCl was intravenously administered to investigate the response of the animal. Then, a solution of LTD4 in physiological saline (10 μg/kg) was intravenously administered and the bronchoconstriction elicited thereby was recorded for 15 minutes. Two minutes before LTD4 loading, compound (I)-A-1 was intravenously administered in a volume of 0.1 ml per 100 g body weight. Compound (I)-A-1 and LTD4 were administered through a cannula inserted into the jugular vein.
The compound (I)-A-1 was used as dissolved in physiological saline containing sodium hydrogen carbonate, and LTD4 was taken from a stock stored in methanol (1 mg/1 ml methanol) at -70° C.
The bronchoconstriction induced by intravenous administration of 10 μg/kg of LTD4 as given 2 minutes after the administration of physiological saline was maximal at the time of 30 seconds after the administration of LTD4 and, since then, was rapidly attenuated to about 50% at the time of 2 minutes but lasted till 15 minutes. Assuming that the response at complete obstruction is 100%, the values at 30 seconds and 15 minutes were 47.4±6.9% (n=6, Mean±S.E.) and 19.4±2.8% (Mean±S.E.), respectively (S.E.: standard error).
Then the present inventors studied the antagonistic action of the compound (I)-B against SRS-A using a synthetic LTD4 in the manner described on the compound (I)-A.
In each case, the bronchoconstriction following intravenous administration of 10 μg/kg of LTD4 at 2 or 30 minutes after the administration of physiological saline reached a maximum 30 seconds after the administration of LTD4, and then decreased to about 50% at 2 minutes after the administration of LTD4. The response continued for 15 minutes after the administration of LTD4. Repeated experiments using 6 animals per group gave mean degrees of maximum bronchoconstriction (30-second values) of 52.2-67.1% and 54.7-70.1%, respectively, as compared with the state of complete obstruction (100%). In experiment 1, the test compounds (I)-B-1, (I)-B-2 and Control compound-1 were each intravenously administered at two minutes before the administration of LTD4 and inhibitory effect on the bronchoconstriction was examined. The minimum effective doses (causing statistically significant differences as compared with the control group; significance level <5%) were 0.313, 0.313 and 5 mg/kg, respectively. The corresponding inhibition percentages were 41, 52 and 56%, respectively. In experiment 2, the test compounds were intravenously administered 30 minutes before the administration of LTD4 and the effect on the above response was examined. The minimum effective doses were 5, 5, and 20 mg/kg, respectively.
The test compounds were intravenously administered 2 minutes before the
intravenous administration of 10 μg/kg of LTD4.
The test compounds were intravenously administered 30 minutes before the
Each value was calculated from the volume (in percentage) of air […]

Carrageenin edema = Carrageenin edema in rats; format: in vivo, rat; settings: for Percent inhibition: carrageenin edema; for Mean volume of edematous swelling ±S.E.: in ml (unit assumed)
Procedure: The volume of the right hind paw of each rat was measured and the test compound suspended in 4% gum arabic solution was orally administered in an amount of 1 ml/100 g body weight. Immediately thereafter, a further amount of water was given to make the total dosing volume 5 ml. After 1 hour, 0.05 ml of a 1% suspension of carageenin in physiological saline was subcutaneously injected into the foot pad. Three hours after the carrageenin injection, the volume of the paw was measured again and the volume of the edema was calculated as a difference between this measured volume of the paw and the volume before the injection.
In the case of intravenous administration, a solution of the test compound in an aqueous solution of NaHCO3 was intravenously administered in an amount of 2.0 ml/100 g body weight and 5 ml of water per animal was orally administered. Then, carrageenin was injected subcutaneously to produce edema.

Acute toxicity in mice = format: in vivo, mouse (Jcl:ICR strain); settings: 500 mg/kg oral
Procedure: Five 5-week-old male mice of Jcl:ICR strain, weighing 26.0 to 30.5 g, were used. Compound (I)-A-1 was suspended in a 5% solution of gum arabic and administered orally by gastric gavage at the level of 0.2 ml per 10 grams body weight.
Five 5-week-old male mice of Jcl:ICR strain, weighing 26.0 to 30.5 g, were used. Compound (I)-B-1 or (I)-B-2 was suspended in a 5% solution of gum arabic and administered orally by gastric gavage at the level of 0.2 ml per 10 grams body weight.

CCCc1c(OCC(O)COc2ccc(-c3nn[nH]n3)cc2Cl)ccc(C(C)=O)c1O (centres unmarked) [Compound (I)-A-1, 4-[3-[4-(tetrazol-5-yl)-2-chlorophenoxy]-2-hydroxypropoxy]-2-hydroxy-3-propylacetophenone]
IC50 [1]: 4.1 nM
Percent increase of overflow ([2]; 0.08 mg/kg i.v., 8 animals): 29.1 ± 7.5%
Percent inhibition ([2]; 0.08 mg/kg i.v.): 39%
Percent increase of overflow ([2]; 0.313 mg/kg i.v., 6 animals): 28.1 ± 7.1%
Percent inhibition ([2]; 0.313 mg/kg i.v.): 41%
Percent increase of overflow ([2]; 1.25 mg/kg i.v., 6 animals, *p<0.05 vs physiological saline control): 23.4 ± 8.0%
Percent inhibition ([2]; 1.25 mg/kg i.v.): 51%
inhibition of LTD4 bronchoconstriction (in words) ([2]; 5 mg/kg i.v., 2 minutes before LTD4): substantially complete inhibition
Percent increase of overflow ([2]; 5 mg/kg i.v., 6 animals, ***p<0.001 vs physiological saline control): 3.3 ± 2.1%
Percent inhibition ([2]; 5 mg/kg i.v.): 93%
inhibitory effect against LTD4 bronchoconstriction (in words) ([2]; intravenously administered 2 minutes before LTD4 dosing): remarkable inhibitory effect
Percent inhibition (Carrageenin edema; 1 mg/kg i.v.): 19.2%
Mean volume of edematous swelling ±S.E. (Carrageenin edema; 1 mg/kg i.v.): 0.442 ± 0.044
Percent inhibition (Carrageenin edema; 10 mg/kg i.v.): 25.0%
Mean volume of edematous swelling ±S.E. (Carrageenin edema; 10 mg/kg i.v., *p<0.05): 0.410 ± 0.046
Mean volume of edematous swelling ±S.E. (Carrageenin edema; 50 mg/kg p.o., 3 hours after carrageenin, *p<0.05): 0.487 ± 0.023
Percent inhibition (Carrageenin edema; 50 mg/kg p.o.): 15.0%
antiinflammatory activity (in words) (Carrageenin edema; rat, in vivo): has an antiinflammatory activity
Autopsy findings (Acute toxicity in mice; after 1 week): did not reveal any abnormalities
symptoms attributable to compound after oral administration (Acute toxicity in mice; male mice): no symptoms
